This passage reports EC50 results from patent publication US12655130B2 (ASSEMBLY BIOSCIENCES, INC., priority 2020, dated 2026).

Molecules are shown by their SMILES. Like-named read-outs stand apart in the source and are kept apart here.

In this test the test system is HBV viral load (viral production from HepAD38 cells). Nature of the test: Activity of test compounds on viral production from HepAD38 cells (viral load by qPCR of HBV core sequence). It is filed as cell-based. The method, boiled down:
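EC50 and CC50 come from four-parameter logistic fits: HBV core DNA in supernatant by TaqMan qPCR against DNA standards, normalised to DMSO controls, and cell viability by CellTiter-Glo. Cells were plated at 50,000/well without tetracycline (2% FBS) and exposed to compounds (highest 10 μM) for 5 days, 37 °C.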
Background: Real-time PCR tracks product formation cycle by cycle.

Where [1] appears, read: Hepatitis B virus, HePAD38, 120 h, viral load lowering, 5 days, qPCR of supernatant, read-out: VL HepAD38 EC50 range.

As to `O=C(Nc1ccc(F)c(Cl)c1)c1c(C2CC3CC(O)CC3C2)nc2n1CCOC2` (centres unmarked) [Example 82, N-(3-Chloro-4-fluorophenyl)-2-(5-hydroxyoctahydropentalen-2-yl)-5,6-dihydro-8H-imidazo[2,1-c][1,4]oxazine-3-carboxamide], under setting [1], the EC50 – broadly, the concentration giving half of the maximal effect – was 50 to 500 nM.

Turning to `O=C1CC2CC(c3nc4n(c3C(=O)Nc3ccc(F)c(Cl)c3)CCCC4)CC2C1` (centres unmarked) [Example 40, 2-[-5-Oxo-2,3,3a,4,6,6a-hexahydro-1H-pentalen-2-yl]-N-(3-chloro-4-fluorophenyl)-5,6,7,8-tetrahydroimidazo[1,2-a]pyridine-3-carboxamide], under “read-out: VL HepAD38 EC50 range, viral load lowering, 5 days, qPCR of supernatant”, the EC50 was in the range of 50 to 500 nM.

On to `Cn1cnc(C2CC3CC(O)(c4[nH]ncc4C(F)(F)F)CC3C2)c1C(=O)Nc1ccc(F)c(Cl)c1` (centres unmarked) [Example 149, N-(3-Chloro-4-fluorophenyl)-4-(5-hydroxy-5-(4-(trifluoromethyl)-1H-pyrazol-5-yl)octahydropentalen-2-yl)-1-methyl-1H-imidazole-5-carboxamide], for which, under setting [1], the EC50 is under 10 nM.

Regarding `O=C(Nc1ccc(F)c(Cl)c1)c1c(C2CC3CC(O)CC3C2)nc2n1CCNC2` (centres unmarked) [Example 85, N-(3-chloro-4-fluorophenyl)-2-(5-hydroxyoctahydropentalen-2-yl)-5,6,7,8-tetrahydroimidazo[1,2-a]pyrazine-3-carboxamide], the EC50 under setting [1] was 50 to 500 nM.

As for `Cn1cnc(C2(O)CC3CC(c4ncn(C)c4C(=O)Nc4ccc(F)c(Cl)c4)CC3C2)c1` (single isomer, unassigned) [Example 4, N-(3-Chloro-4-fluorophenyl)-4-(5-hydroxy-5-(1-methyl-1H-imidazol-4-yl)octahydropentalen-2-yl)-1-methyl-1H-imidazole-5-carboxamide], the EC50 under setting [1] was under 10 nM.

`CN1CCn2c(nc(C3CC4CC(O)CC4C3)c2C(=O)Nc2ccc(F)c(Cl)c2)C1` (centres unmarked) [Example 91, N-(3-chloro-4-fluorophenyl)-2-(5-hydroxyoctahydropentalen-2-yl)-7-methyl-5,6,7,8-tetrahydroimidazo[1,2-a]pyrazine-3-carboxamide]: the EC50 under setting [1] was under 10 nM.

In the case of `Cn1cnc(C2CC3CC(O)(c4cc(C(C)(C)O)nn4C)CC3C2)c1C(=O)Nc1ccc(F)c(C#N)c1` (centres unmarked) [Example 108, N-(3-Cyano-4-fluorophenyl)-4-(5-hydroxy-5-(3-(2-hydroxypropan-2-yl)-1-methyl-1H-pyrazol-5-yl)octahydropentalen-2-yl)-1-methyl-1H-imidazole-5-carboxamide], under setting [1], the EC50 is under 10 nM.

On to `[2H]C([2H])([2H])n1nccc1C1(O)CC2CC(c3ncn(C)c3C(=O)Nc3ccc(F)c(Cl)c3)CC2C1` (centres unmarked) [Example 137, N-(3-chloro-4-fluorophenyl)-4-(5-hydroxy-5-(1-(methyl-d3)-1H-pyrazol-5-yl)octahydropentalen-2-yl)-1-methyl-1H-imidazole-5-carboxamide], for which, under setting [1], the EC50 was under 10 nM.

For the molecule `CCC(O)COc1cc(C2(O)CC3CC(c4ncn(C)c4C(=O)Nc4ccc(F)c(Cl)c4)CC3C2)n(C)n1` (centres unmarked) [Example 203, N-(3-Chloro-4-fluorophenyl)-4-(5-hydroxy-5-(3-(2-hydroxybutoxy)-1-methyl-1H-pyrazol-5-yl)octahydropentalen-2-yl)-1-methyl-1H-imidazole-5-carboxamide], under setting [1], the EC50 was under 10 nM.

Turning to `Cn1cnc(C2CC3CC(O)(c4c(C(F)(F)F)cnn4C)CC3C2)c1C(=O)Nc1ccc(F)c(Cl)c1` (centres unmarked) [Example 99, N-(3-chloro-4-fluorophenyl)-4-(5-hydroxy-5-(1-methyl-4-(trifluoromethyl)-1H-pyrazol-5-yl)octahydropentalen-2-yl)-1-methyl-1H-imidazole-5-carboxamide], the EC50 under setting [1] is under 10 nM.

Turning to `CN(C)Cc1cnn(C)c1C1(O)CC2CC(c3ncn(C)c3C(=O)Nc3ccc(F)c(Cl)c3)CC2C1` (single isomer, unassigned) [Example 70, N-(3-Chloro-4-fluorophenyl)-4-(5-(4-((dimethylamino)methyl)-1-methyl-1H-pyrazol-5-yl)-5-hydroxyoctahydropentalen-2-yl)-1-methyl-1H-imidazole-5-carboxamide], the concentration giving a half-maximal response (EC50) under setting [1] was under 10 nM.

Consider `CC(N)C(=O)Nc1cc(C2(O)CC3CC(c4ncn(C)c4C(=O)Nc4ccc(F)c(Cl)c4)CC3C2)n(C)n1` (centres unmarked) [Example 219, 4-(5-(3-(2-Aminopropanamido)-1-methyl-1H-pyrazol-5-yl)-5-hydroxyoctahydropentalen-2-yl)-N-(3-chloro-4-fluorophenyl)-1-methyl-1H-imidazole-5-carboxamide], for which the EC50 under setting [1] is under 10 nM.

Turning to `CCOC(=O)Oc1cc(C2(O)CC3CC(c4ncn(C)c4C(=O)Nc4ccc(F)c(Cl)c4)CC3C2)n(C)n1` (centres unmarked) [Example 222, 5-(5-(5-((3-Chloro-4-fluorophenyl)carbamoyl)-1-methyl-1H-imidazol-4-yl)-2-hydroxyoctahydropentalen-2-yl)-1-methyl-1H-pyrazol-3-yl ethyl carbonate], under setting [1], the concentration giving a half-maximal response (EC50) was under 10 nM.

For `Cn1cnc(C2CC3CC(O)(c4ccnn4C)CC3C2)c1C(=O)Nc1ccc(F)c(Cl)c1` (centres unmarked) [Example 10, N-(3-chloro-4-fluorophenyl)-4-(5-hydroxy-5-(1-methyl-1H-pyrazol-5-yl)octahydropentalen-2-yl)-1-methyl-1H-imidazole-5-carboxamide], the EC50 under setting [1] is under 10 nM.

As to `Cn1cnc(C2CC3CC(O)(c4cc(OCC(C)(C)O)nn4C)CC3C2)c1C(=O)Nc1ccc(F)c(Cl)c1` (centres unmarked) [Example 55, N-(3-Chloro-4-fluorophenyl)-4-(5-hydroxy-5-(3-(2-hydroxy-2-methylpropoxy)-1-methyl-1H-pyrazol-5-yl)octahydropentalen-2-yl)-1-methyl-1H-imidazole-5-carboxamide], under setting [1], the half-maximal effective concentration (EC50) was under 10 nM.

As for `CCn1nc(C(F)F)cc1C1(O)CC2CC(c3ncn(C)c3C(=O)Nc3ccc(F)c(C#N)c3)CC2C1` (centres unmarked) [Example 192, N-(3-Cyano-4-fluorophenyl)-4-(5-(3-(difluoromethyl)-1-ethyl-1H-pyrazol-5-yl)-5-hydroxyoctahydropentalen-2-yl)-1-methyl-1H-imidazole-5-carboxamide], the EC50 under setting [1] was under 10 nM.

Consider `Cn1cnc(C2CC3CC(O)(c4cc(O)nn4C)CC3C2)c1C(=O)Nc1ccc(F)c(Cl)c1` (centres unmarked) [Example 53, N-(3-Chloro-4-fluorophenyl)-4-(5-hydroxy-5-(3-hydroxy-1-methyl-1H-pyrazol-5-yl)octahydropentalen-2-yl)-1-methyl-1H-imidazole-5-carboxamide], for which the EC50 under setting [1] was under 10 nM.

Take `CC(=O)c1nn(C)cc1C1(O)CC2CC(c3ncn(C)c3C(=O)Nc3ccc(F)c(Cl)c3)CC2C1` (centres unmarked) [Example 183, 4-(5-(3-Acetyl-1-methyl-1H-pyrazol-4-yl)-5-hydroxyoctahydropentalen-2-yl)-N-(3-chloro-4-fluorophenyl)-1-methyl-1H-imidazole-5-carboxamide]: the EC50 under setting [1] fell in the range of 10 to 50 nM.

On to `Cn1cnc(C2CC3CC(O)(c4cc(C(C)(C)C(N)=O)nn4C)CC3C2)c1C(=O)Nc1ccc(F)c(Cl)c1` (centres unmarked) [Example 106, 4-(5-(3-(1-amino-2-methyl-1-oxopropan-2-yl)-1-methyl-1H-pyrazol-5-yl)-5-hydroxyoctahydropentalen-2-yl)-N-(3-chloro-4-fluorophenyl)-1-methyl-1H-imidazole-5-carboxamide], for which the EC50 under setting [1] is under 10 nM.

`CC(CO)Oc1cc(C2(O)CC3CC(c4ncn(C)c4C(=O)Nc4ccc(F)c(Cl)c4)CC3C2)n(C)n1` (single isomer, unassigned) [Example 68, N-(3-Chloro-4-fluorophenyl)-4-(5-hydroxy-5-(3-((1-hydroxypropan-2-yl)oxy)-1-methyl-1H-pyrazol-5-yl)octahydropentalen-2-yl)-1-methyl-1H-imidazole-5-carboxamide]: under setting [1], the EC50 was under 10 nM.

For `Cn1cnc(C2CC3CC(O)(Cn4cccn4)CC3C2)c1C(=O)Nc1ccc(F)c(Cl)c1` (single isomer, unassigned) [Example 128, 4-(5-((1H-pyrazol-1-yl)methyl)-5-hydroxyoctahydropentalen-2-yl)-N-(3-chloro-4-fluorophenyl)-1-methyl-1H-imidazole-5-carboxamide], the EC50 under setting [1] is under 10 nM.

In the case of `Cn1cc(C2(O)CC3CC(c4ncn(C)c4C(=O)Nc4ccc(F)c(Cl)c4)CC3C2)c(Br)n1` (centres unmarked) [Example 182, 4-(5-(3-Bromo-1-methyl-1H-pyrazol-4-yl)-5-hydroxyoctahydropentalen-2-yl)-N-(3-chloro-4-fluorophenyl)-1-methyl-1H-imidazole-5-carboxamide], the EC50 under setting [1] is under 10 nM.

In the case of `Cn1cnc(C2CC3CC(N4CCOCC4)CC3C2)c1C(=O)Nc1ccc(F)c(Cl)c1` (centres unmarked) [Example 47, 5-[-5-(4-Morpholinyl)-1,2,3,3a,4,5,6,6a-octahydropentalen-2-yl]-N-(3-chloro-4-fluorophenyl)-3-methyl-4-imidazolecarboxamide], the half-maximal effective concentration (EC50) under setting [1] was 50 to 500 nM.

In the case of `CC(C)Cn1nc([N+](=O)[O-])cc1C1(O)CC2CC(c3ncn(C)c3C(=O)Nc3ccc(F)c(Cl)c3)CC2C1` (centres unmarked) [Example 165, N-(3-Chloro-4-fluorophenyl)-4-(5-hydroxy-5-(1-isobutyl-3-nitro-1H-pyrazol-5-yl)octahydropentalen-2-yl)-1-methyl-1H-imidazole-5-carboxamide], under setting [1], the 50% effective concentration (EC50) is under 10 nM.

For the molecule `O=C1CC2CC(c3nc4n(c3C(=O)Nc3ccc(F)c(Cl)c3)CCCC4)CC2C1` (centres unmarked) [Example 81, N-(3-Chloro-4-fluorophenyl)-2-(5-oxooctahydropentalen-2-yl)-5,6,7,8-tetrahydroimidazo[1,2-a]pyridine-3-carboxamide], the EC50 (viral load lowering, 5 days, qPCR of supernatant, read-out: VL HepAD38 EC50 range) fell in the range of 10 to 50 nM.

As to `Cn1cc(C2(O)CC3CC(c4nc(Cl)n(C)c4C(=O)Nc4ccc(F)c(Cl)c4)CC3C2)c(C(F)(F)F)n1` (centres unmarked) [Example 110, 2-Chloro-N-(3-chloro-4-fluorophenyl)-4-(5-hydroxy-5-(1-methyl-3-(trifluoromethyl)-1H-pyrazol-4-yl)octahydropentalen-2-yl)-1-methyl-1H-imidazole-5-carboxamide], under setting [1], the 50% effective concentration (EC50) was under 10 nM.
